Test results: ChEMBL document CHEMBL4602695, “Discovery and SARs of 5-Chloro-N4-phenyl-N2-(pyridin-2-yl)pyrimidine-2,4-diamine Derivatives as Oral Available and Dual CDK 6 and 9 Inhibitors with Potent Antitumor Activity” (J Med Chem, 2020)

Tests used:
MDA-MB-231 [1] = assay: Induction of apoptosis in human MDA-MB-231 cells assessed as viable cells at 8 uM measured after 48 hrs by Annexin V-FITC/propidium iodide staining based flow cytometry (95.8%); type: functional; conditions: MDA-MB-231, 48 h, read-out: Activity
[2] = Stability in human hepatocytes assessed as parent compound remaining after 120 mins by LC-MS/MS analysis; type: ADME, cell-based, Hepatocyte; conditions: read-out: Stability
[3] = Apparent permeability in human Caco2 cells measured after 90 mins by LC-MS/MS analysis; type: ADME, cell-based; conditions: Caco-2
CDK6/cyclin D3 = CDK6/cyclin D3 (Homo sapiens, UniProt Q00534); design: species or system Sf9
Chain of CDK6/cyclin D3 (P30281 whole entry): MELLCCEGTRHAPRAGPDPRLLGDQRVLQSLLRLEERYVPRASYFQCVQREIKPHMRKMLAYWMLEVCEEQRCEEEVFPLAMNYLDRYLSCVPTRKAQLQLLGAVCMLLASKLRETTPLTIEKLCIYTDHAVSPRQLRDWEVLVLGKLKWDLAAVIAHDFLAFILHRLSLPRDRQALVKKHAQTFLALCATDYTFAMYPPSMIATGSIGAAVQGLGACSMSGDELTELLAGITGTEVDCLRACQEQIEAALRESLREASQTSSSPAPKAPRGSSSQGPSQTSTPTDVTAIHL
Chain of CDK6/cyclin D3 (Q00534 whole entry): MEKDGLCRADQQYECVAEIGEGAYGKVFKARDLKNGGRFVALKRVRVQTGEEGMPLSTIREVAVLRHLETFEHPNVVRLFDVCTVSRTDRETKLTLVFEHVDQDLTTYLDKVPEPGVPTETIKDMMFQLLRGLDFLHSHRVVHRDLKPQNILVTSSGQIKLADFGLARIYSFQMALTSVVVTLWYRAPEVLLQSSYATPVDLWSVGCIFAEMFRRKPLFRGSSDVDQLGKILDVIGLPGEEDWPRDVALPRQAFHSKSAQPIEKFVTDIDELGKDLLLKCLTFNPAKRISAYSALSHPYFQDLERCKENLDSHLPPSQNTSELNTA

[4] = Cytotoxicity against human L02 cells assessed as inhibition of cell proliferation measured after 48 hrs by CCK8 assay; type: cell-based
[5] = Clearance in human hepatocytes assessed per million cells by LC-MS/MS analysis; type: ADME, cell-based, Hepatocyte; conditions: read-out: CLH
MDA-MB-231 [6] = assay: Induction of apoptosis in human MDA-MB-231 cells assessed as early apoptotic cells at 12 uM measured after 48 hrs by Annexin V-FITC/propidium iodide staining based flow cytometry (0.877%); type: functional
[7] = Clearance in mouse hepatocytes assessed per million cells by LC-MS/MS analysis; type: ADME, cell-based, Hepatocyte; conditions: read-out: CLH
MDA-MB-231 [8] = assay: Induction of apoptosis in human MDA-MB-231 cells assessed as viable cells at 12 uM measured after 48 hrs by Annexin V-FITC/propidium iodide staining based flow cytometry (95.8%); type: functional; conditions: MDA-MB-231, 48 h, read-out: Activity
[9] = Clearance in Sprague-Dawley rat at 10 mg/kg, po by LC-MS/MS analysis; type: ADME, organism-based; conditions: in vivo
MDA-MB-231 [10] = assay: Cell cycle arrest in human MDA-MB-231 cells assessed as accumulation at G2/M phase at 12 uM measured after 48 hrs by propidium iodide staining based flow cytometry (reference value: 15.9%); type: functional
[11] = Octanol-water partition coefficient, log P of the compound by HPLC-based shake flask method; type: physicochemical
[12] = AUC (0 to infinity) in Sprague-Dawley rat at 2 mg/kg, iv by LC-MS/MS analysis; type: ADME, organism-based; design: dose 2 mg/kg, route intravenous, time infinity; conditions: in vivo
[13] = target: Cyclin-dependent kinase 5/CDK5 activator 1 (Homo sapiens, UniProt Q00535); conditions: Sf9, human, read-out: INH
Chain of Cyclin-dependent kinase 5/CDK5 activator 1 (Q00535 whole entry): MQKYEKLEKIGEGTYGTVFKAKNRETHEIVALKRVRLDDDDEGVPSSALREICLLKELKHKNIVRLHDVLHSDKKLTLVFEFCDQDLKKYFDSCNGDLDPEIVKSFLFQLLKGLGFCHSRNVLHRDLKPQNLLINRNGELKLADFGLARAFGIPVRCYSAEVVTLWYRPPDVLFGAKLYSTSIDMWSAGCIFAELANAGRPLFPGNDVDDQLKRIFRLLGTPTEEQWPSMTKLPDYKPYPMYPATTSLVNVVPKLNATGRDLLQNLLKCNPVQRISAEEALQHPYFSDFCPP
Chain of Cyclin-dependent kinase 5/CDK5 activator 1 (Q15078 whole entry, further chain): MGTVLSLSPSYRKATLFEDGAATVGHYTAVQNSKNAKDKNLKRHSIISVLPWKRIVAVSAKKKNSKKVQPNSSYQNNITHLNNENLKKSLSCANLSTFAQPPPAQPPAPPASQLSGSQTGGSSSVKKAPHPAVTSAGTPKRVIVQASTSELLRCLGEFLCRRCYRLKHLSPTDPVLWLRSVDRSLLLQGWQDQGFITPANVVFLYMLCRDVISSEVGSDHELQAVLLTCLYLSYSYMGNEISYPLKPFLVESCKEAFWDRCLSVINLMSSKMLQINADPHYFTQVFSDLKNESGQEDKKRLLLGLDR

SMILES: CC(=O)Nc1cccc(Nc2nc(Nc3ccc(N4CCN(C)CC4)cn3)ncc2Cl)c1
- viability at 8 µM (MDA-MB-231 [1]): 87.5%
- remaining at 2 h [2]: 40.4%
- Papp at 1.5 h [3]: 1.7 ×10⁻⁶ cm/s
- IC50 (CDK6/cyclin D3): 40.5 nM
- GI50 at 48 h [4]: > 100000 nM
- hepatocyte CLint [5]: 7.5 µL/min/1e6 cells
- Activity (MDA-MB-231 [6]): 16.4%
- hepatocyte CLint [7]: 17.7 µL/min/1e6 cells
- viability at 12 µM (MDA-MB-231 [8]): 54.9%
- CL/F [9]: 180 mL/min/kg
- Activity (MDA-MB-231 [10]): 34.27%
- logP [11]: 1.23
- AUC(0-inf) [12]: 641 ng·h/mL
- inhibition at 1 µM [13]: < 6.6%
